Data as given in patent US8546443B2, “Benzylic oxindole pyrimidines” (Boehringer Ingelheim International GmbH, priority 2010, dated 2013).

Assays:
[1] = molecular target: T1, cytoplasmic kinase domain of human IGF-1R (IGF-1R-GST) (Homo sapiens, UniProt P08069); experiment: Insulin-like growth factor-1 receptor (IGF-1R) kinase assay (DELFIA); type: biochemical; conditions: IGF-1R-GST kinase activity, read-out: IGF1R IC50
T1 construct: cytoplasmic kinase domain of human IGF-1R (amino acids 964-1370); GST (glutathione-S-transferase); made in house; host or cells: High Five insect cells (Invitrogen)
How it was run: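 GST-tagged IGF-1R cytoplasmic kinase domain phosphorylates pEY with biotinylated pEY for 40 min at RT; EDTA stop. Product captured on streptavidin, detected with europium anti-phosphotyrosine antibody by DELFIA time-resolved fluorescence; IC50 from inhibition curves.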

[2] = tested on: TC-71 (Ewing's sarcoma) cells; experiment: Cell proliferation assay, TC-71 (Alamar Blue); type: cell-based; conditions: 72 h with compound, EC50 ranges as class symbols
Experimental: Cell Proliferation Assays
Compounds were tested for their anti-proliferative effects in the TC-71 (Ewing's sarcoma) and HCT 116 (colorectal carcinoma) cancer cell lines in vitro. Published scientific data has described that interference with the Insulin-like Growth Factor-1 Receptor (IGF-1R) signaling pathway reduces the proliferation of TC-71 cells. Therefore TC-71 cells served as a positive control cell line for monitoring the activity of compounds against IGF-1R-mediated cell proliferation. […] Therefore the HCT 116 cell line served as a negative control.
2000 TC-71 cells or 1000 HCT 116 cells were seeded per well in 180 μL IMDM+10% foetal calf serum (FCS)+ penicillin/streptomycin into 96-well microtitre plates. The plates were placed in a cell culture incubator (37° C. in a humidified atmosphere of […]/5 CO2) overnight. The following day, serial dilutions of compounds, prepared in duplicates, were transferred onto the cell layers (controls without compound). The cells were cultivated for a further 72 h in the cell culture incubator. 20 μL of Alamar Blue™ (Serotec Ltd, Düsseldorf, Germany) was added to each well and the plates incubated for 7 h in the cell culture incubator. Fluorescence (extinction wavelength of 544 nm and emission at 590 nm) was then measured and the normalized data fitted by iterative calculation with a sigmoidal curve analysis program (Graph Pad Prism) with a variable Hill slope to determine the IC50 values.

T1 sequence (P08069 964-1367 limits assumed): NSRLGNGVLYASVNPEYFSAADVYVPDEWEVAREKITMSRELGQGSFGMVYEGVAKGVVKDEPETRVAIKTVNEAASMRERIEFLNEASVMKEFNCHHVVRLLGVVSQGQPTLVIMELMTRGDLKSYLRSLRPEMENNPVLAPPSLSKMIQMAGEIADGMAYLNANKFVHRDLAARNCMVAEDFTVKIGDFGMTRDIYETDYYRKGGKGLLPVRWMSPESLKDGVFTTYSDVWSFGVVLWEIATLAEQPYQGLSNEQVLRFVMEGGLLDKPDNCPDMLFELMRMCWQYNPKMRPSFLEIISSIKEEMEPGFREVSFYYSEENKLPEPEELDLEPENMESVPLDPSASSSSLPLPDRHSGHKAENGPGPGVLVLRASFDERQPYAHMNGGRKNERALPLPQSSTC

Row | Structure (SMILES) | IC50 [1] | EC50 [2]
1 | CC1(C)C(=O)Nc2cccc(CNc3nc(Nc4ccc(C5CCCNC5)cc4)ncc3Br)c21 (racemic) [Example I-238] | 1 nM | 50 to 250 nM
2 | CNC1(C(=O)N2CCCC(c3ccc(Nc4ncc(Br)c(NCc5cccc6c5C(C)(C)C(=O)N6)n4)c(C)c3)C2)CC1 (racemic) [Example I-291] | 6 nM | 50 to 250 nM
3 | COc1cc(C2CCCN(CC(C)(C)O)C2)ccc1Nc1ncc(C(F)(F)F)c(NCc2cccc3c2C(C)(C)C(=O)N3)n1 (racemic) [Example I-301] | 1.6 nM | < 50 nM
4 | Cc1cc(C2CCCN(CC(C)(C)O)C2)ccc1Nc1ncc(C(F)(F)F)c(NCc2cccc3c2C(C)(C)C(=O)N3)n1 (racemic) [Example I-306] | 1 nM | < 50 nM
5 | Cc1cc(C2CCCN(CC(O)C(F)(F)F)C2)ccc1Nc1ncc(Br)c(NCc2cccc3c2C(C)(C)C(=O)N3)n1 (racemic) [Example I-316] | 2 nM | 50 to 250 nM
6 | CC1(C)C(=O)Nc2cccc(CNc3nc(Nc4ccc(C5CCCN(CC(O)C(F)(F)F)C5)cc4)ncc3Br)c21 (racemic) [Example I-325] | 2 nM | 50 to 250 nM
7 | Cc1cc(C2CCCN(CC(C)(C)O)C2)ccc1Nc1ncc(Cl)c(NCc2cccc3c2C(C)(C)C(=O)N3)n1 (racemic) [Example I-328] | 1 nM | < 50 nM
8 | Cc1cc(C2CCCN(CC(O)C(F)(F)F)C2)ccc1Nc1ncc(Cl)c(NCc2cccc3c2C(C)(C)C(=O)N3)n1 (racemic) [Example I-329] | 2 nM | < 50 nM
9 | CC1(C)C(=O)Nc2cccc(CNc3nc(Nc4ccc(C5CCCN(CC(O)C(F)(F)F)C5)cc4)ncc3Cl)c21 (racemic) [Example I-333] | 2 nM | 250 to 3000 nM
10 | COCCN1CCCC(c2ccc(Nc3ncc(C(F)(F)F)c(NCc4cccc5c4C(C)(C)C(=O)N5)n3)c(C)c2)C1 (racemic) [Example I-356] | 0.8 nM | < 50 nM
11 | COCCN1CCCC(c2ccc(Nc3ncc(Br)c(NCc4cccc5c4C(C)(C)C(=O)N5)n3)cc2)C1 (racemic) [Example I-357] | 0.7 nM | 50 to 250 nM
12 | CNC(=O)CN1CCCC(c2ccc(Nc3ncc(Br)c(NCc4cccc5c4C(C)(C)C(=O)N5)n3)cc2)C1 (racemic) [Example I-365] | 1 nM | 50 to 250 nM
13 | CNC(=O)CN1CCCC(c2ccc(Nc3ncc(Br)c(NCc4cccc5c4C(C)(C)C(=O)N5)n3)c(C)c2)C1 (racemic) [Example I-366] | 2 nM | 50 to 250 nM
14 | COCCN1CCCC(c2ccc(Nc3ncc(Cl)c(NCc4cccc5c4C(C)(C)C(=O)N5)n3)c(C)c2)C1 (racemic) [Example I-373] | 0.4 nM | 50 to 250 nM
15 | CNC(=O)CN1CCCC(c2ccc(Nc3ncc(Cl)c(NCc4cccc5c4C(C)(C)C(=O)N5)n3)cc2)C1 (racemic) [Example I-379] | 6 nM | 50 to 250 nM
16 | COCCN1CCCC(c2ccc(Nc3ncc(Cl)c(NCc4cccc5c4C(C)(C)C(=O)N5)n3)cc2)C1 (racemic) [Example I-380] | 2 nM | 50 to 250 nM
17 | CC1(C)C(=O)Nc2cccc(CNc3nc(Nc4ccc(C5CCCN(CCO)C5)cc4)ncc3Cl)c21 (racemic) [Example I-381] | 0.9 nM | 50 to 250 nM
18 | CNC(=O)CN1CCCC(c2ccc(Nc3ncc(Cl)c(NCc4cccc5c4C(C)(C)C(=O)N5)n3)c(C)c2)C1 (racemic) [Example I-383] | 2 nM | 50 to 250 nM
19 | CCc1cc(C2CCCN(CCOC)C2)ccc1Nc1ncc(Cl)c(NCc2cccc3c2C(C)(C)C(=O)N3)n1 (racemic) [Example I-384] | 6 nM | 50 to 250 nM
20 | COc1cc(N2CCNCC2)ccc1Nc1ncc(C(F)(F)F)c(NCc2cccc3c2C(C)(C)C(=O)N3)n1 [Example I-31] | 0.7 nM | < 50 nM
21 | CC1(C)C(=O)Nc2cccc(CNc3nc(Nc4ccc(C5CCN(C(=O)C6CCCC(=O)N6)CC5)cc4)ncc3Br)c21 (stereo not drawn) [Example I-53] | 6 nM | 50 to 250 nM
22 | CC(C)(O)C(=O)N1CCC(c2ccc(Nc3ncc(Br)c(NCc4cccc5c4C(C)(C)C(=O)N5)n3)cc2)CC1 [Example I-54] | 7 nM | 50 to 250 nM
23 | Cc1cc(C2CCN(CC(C)(C)O)CC2)c(C)cc1Nc1ncc(Cl)c(NCc2cccc3c2C(C)(C)C(=O)N3)n1 [Example I-338] |  | 250 to 3000 nM
24 | CNC(=O)CN1CCC(c2ccc(Nc3ncc(Cl)c(NCc4cccc5c4C(C)(C)C(=O)N5)n3)c(C)c2)CC1 [Example I-370] |  | < 50 nM

The next lines start with the values.

Row | IC50 [1] | EC50 [2] | Structure (SMILES)
25 | 0.4 nM | < 50 nM | Cc1cc(C2CCCN(CC(C)(C)O)C2)ccc1Nc1ncc(Br)c(NCc2cccc3c2C(C)(C)C(=O)N3)n1 (racemic) [Example I-318]
26 | 0.5 nM | < 50 nM | COc1cc(C2CCCN(CC(C)(C)O)C2)ccc1Nc1ncc(Br)c(NCc2cccc3c2C(C)(C)C(=O)N3)n1 (racemic) [Example I-322]
27 | 1 nM | < 50 nM | COc1cc(C2CCCN(CC(C)(C)O)C2)ccc1Nc1ncc(Cl)c(NCc2cccc3c2C(C)(C)C(=O)N3)n1 (racemic) [Example I-327]
28 | 0.5 nM | < 50 nM | COCCN1CCCC(c2ccc(Nc3ncc(C(F)(F)F)c(NCc4cccc5c4C(C)(C)C(=O)N5)n3)c(OC)c2)C1 (racemic) [Example I-350]
29 | 0.5 nM | < 50 nM | COc1cc(C2CCCN(CCO)C2)ccc1Nc1ncc(C(F)(F)F)c(NCc2cccc3c2C(C)(C)C(=O)N3)n1 (racemic) [Example I-351]
30 | 1 nM | < 50 nM | Cc1cc(C2CCCN(CCO)C2)ccc1Nc1ncc(C(F)(F)F)c(NCc2cccc3c2C(C)(C)C(=O)N3)n1 (racemic) [Example I-354]
31 | 0.7 nM | < 50 nM | CC1(C)C(=O)Nc2cccc(CNc3nc(Nc4ccc(C5CCCN(CCO)C5)cc4)ncc3Br)c21 (racemic) [Example I-358]
32 | 0.5 nM | < 50 nM | COCCN1CCCC(c2ccc(Nc3ncc(Br)c(NCc4cccc5c4C(C)(C)C(=O)N5)n3)c(C)c2)C1 (racemic) [Example I-359]
33 | 0.6 nM | < 50 nM | COCCN1CCCC(c2ccc(Nc3ncc(Br)c(NCc4cccc5c4C(C)(C)C(=O)N5)n3)c(OC)c2)C1 (racemic) [Example I-360]
34 |  | < 50 nM | COc1cc(C2CCCN(CCO)C2)ccc1Nc1ncc(Br)c(NCc2cccc3c2C(C)(C)C(=O)N3)n1 (racemic) [Example I-361]
35 | 0.6 nM | < 50 nM | Cc1cc(C2CCCN(CCO)C2)ccc1Nc1ncc(Br)c(NCc2cccc3c2C(C)(C)C(=O)N3)n1 (racemic) [Example I-364]
36 | 2 nM | < 50 nM | CCc1cc(C2CCCN(CCOC)C2)ccc1Nc1ncc(Br)c(NCc2cccc3c2C(C)(C)C(=O)N3)n1 (racemic) [Example I-368]
37 | 0.8 nM | < 50 nM | COCCN1CCCC(c2ccc(Nc3ncc(Cl)c(NCc4cccc5c4C(C)(C)C(=O)N5)n3)c(OC)c2)C1 (racemic) [Example I-371]
38 | 0.8 nM | < 50 nM | COc1cc(C2CCCN(CCO)C2)ccc1Nc1ncc(Cl)c(NCc2cccc3c2C(C)(C)C(=O)N3)n1 (racemic) [Example I-372]
39 | 1 nM | < 50 nM | Cc1cc(C2CCCN(CCO)C2)ccc1Nc1ncc(Cl)c(NCc2cccc3c2C(C)(C)C(=O)N3)n1 (racemic) [Example I-382]
